Assay results: ChEMBL document CHEMBL1146118, “Design, synthesis and biological evaluations of novel oxindoles as HIV-1 non-nucleoside reverse transcriptase inhibitors. Part I” (Bioorg Med Chem Lett, 2006)

Columns and labels:
[1] = tested on: Human immunodeficiency virus 1; assay: Antiviral activity against HIV1 in HEK293T cells; type: functional, organism-based; conditions: Human immunodeficiency virus 1, HEK-293T
HEK293 = assay: Cytotoxicity against HEK293T cells; type: functional; conditions: Homo sapiens

Structure (SMILES) | EC50 [1] | CC50 (HEK293)
CCOC(=O)[C@H]1C[C@]12C(=O)Nc1ccc(C#N)cc12 | 0.066 µM | > 10 µM
CCCNC(=O)[C@H]1C[C@]12C(=O)Nc1ccc(Br)cc12 | > 10 µM | > 10 µM
C=Cc1ccc2c(c1)[C@@]1(C[C@@H]1C(=O)OCC)C(=O)N2 | > 10 µM | > 10 µM
CCOC(=O)[C@H]1C[C@]12C(=O)Nc1ccc(F)cc12 | 0.289 µM | > 10 µM
CCOC(=O)[C@@H]1C[C@]12C(=O)Nc1ccc(Br)cc12 | > 10 µM | > 10 µM
CCOC(=O)[C@H]1C[C@]12C(=O)Nc1ccc(Br)cc12 | 0.066 µM | > 10 µM
CC(C)(C)OC(=O)[C@H]1C[C@]12C(=O)Nc1ccc(Br)cc12 | 0.04 µM | > 10 µM
CON(C)C(=O)[C@H]1C[C@]12C(=O)Nc1ccc(Br)cc12 | 0.656 µM | > 10 µM
CCOC(=O)[C@H]1C[C@]12C(=O)Nc1ccc(OC(F)(F)F)cc12 | 2.23 µM | > 10 µM
CCOC(=O)[C@H]1C2(CCCC2)[C@]12C(=O)Nc1ccc(Br)cc12 | 1.46 µM | > 10 µM
CCOC(=O)/C=C1/C(=O)Nc2ccc(Br)cc21 | 2.28 µM | > 10 µM
CCOC(=O)[C@H]1C[C@]12C(=O)Nc1ccc(N)cc12 | 2.7 µM | 1.99 µM
O=C1Nc2ccc(Cl)cc2[C@@](C#CC2CC2)(C(F)(F)F)O1 [EFAVIRENZ] | – | 10 µM
CCOC(=O)[C@H]1C(CC)(CC)[C@]12C(=O)Nc1ccc(Br)cc12 | > 10 µM | > 10 µM
COC(=O)CC1CC12C(=O)Nc1ccc(Br)cc12 (stereo not given) | > 10 µM | > 10 µM
O=C([C@H]1C[C@]12C(=O)Nc1ccc(Br)cc12)N1CCCC1 | 0.191 µM | > 10 µM
O=C([C@H]1C[C@]12C(=O)Nc1ccc(Br)cc12)N1CCSC1 | 0.18 µM | > 10 µM
O=C1Nc2ccc(Br)cc2C12CC2COc1ccccc1 (stereo not given) | 5.62 µM | > 10 µM
CCOC(=O)[C@H]1C[C@]12C(=O)Nc1cc(Cl)ccc12 | > 10 µM | > 10 µM
CCOC(=O)/C=C1\C(=O)Nc2ccc(Br)cc21 | > 10 µM | > 10 µM
CCOC(=O)[C@H]1C[C@]12C(=O)Nc1ccc(I)cc12 | 0.486 µM | > 10 µM
CCCCC(=O)[C@H]1C[C@]12C(=O)Nc1ccc(Br)cc12 | 0.62 µM | > 10 µM
CC(C)OC(=O)[C@H]1C[C@]12C(=O)Nc1ccc(Br)cc12 | 0.059 µM | > 10 µM
CCOC(=O)[C@H]1C[C@]12C(=O)Nc1ccc(Cl)cc12 | 0.059 µM | > 10 µM

Structure (SMILES) | EC50 [1] | CC50 (HEK293)
CCOC(=O)[C@H]1C(C)(C)[C@]12C(=O)Nc1ccc(Br)cc12 | 0.015 µM | > 10 µM
CCOC(=O)[C@H]1C[C@]12C(S)=Nc1ccc(Br)cc12 | > 10 µM | > 10 µM
CCOC(=O)[C@H]1[C@@H](CC)[C@]12C(=O)Nc1ccc(Br)cc12 | 1.21 µM | > 10 µM
CCN(CC)C(=O)[C@H]1C[C@]12C(=O)Nc1ccc(Br)cc12 | 1.42 µM | > 10 µM
CCOC(=O)[C@H]1C[C@]12C(=O)Nc1c(C)cc(Cl)cc12 | 2.25 µM | > 10 µM
Cc1ccnc2c1NC(=O)c1cccnc1N2C1CC1 [NEVIRAPINE] | 0.05 µM | > 10 µM
CCOC(=O)[C@@]1(C)C[C@]12C(=O)Nc1ccc(Br)cc12 | 33.3 µM | > 10 µM
CCOC(=O)[C@H]1C[C@]12C(=O)Nc1ccccc12 | 0.279 µM | > 10 µM
CCOC(=O)[C@H]1C[C@]12C(=O)Nc1ccc(C)cc12 | 1.09 µM | > 10 µM
CCOC(=O)[C@H]1C[C@]12C(=O)Nc1c(Cl)cc(Cl)cc12 | 7.36 µM | > 10 µM
CCOC(=O)CC1(C)C(=O)Nc2ccc(Br)cc21 (stereo not given) | > 10 µM | > 10 µM
O=C(O)[C@H]1C[C@]12C(=O)Nc1ccc(Br)cc12 | 7.63 µM | > 10 µM
CCOC(=O)[C@H]1C[C@]12C(=O)Nc1ccc(-c3cccs3)cc12 | 2.65 µM | 1.94 µM
CCCCC1CC12C(=O)Nc1ccc(Br)cc12 (stereo not given) | 0.197 µM | > 10 µM
CCCCCC#CC1CC12C(=O)Nc1ccc(Br)cc12 (stereo not given) | 0.463 µM | 6.62 µM
CCOC(=O)[C@H]1C[C@]12C(=O)Nc1ccc([N+](=O)[O-])cc12 | 1.03 µM | > 10 µM
CCOC(=O)[C@H]1C[C@]12C(=O)Nc1ccc(-c3ccco3)cc12 | 0.608 µM | 2.19 µM
CCOC(=O)[C@H]1[C@H](CC)[C@]12C(=O)Nc1ccc(Br)cc12 | 0.03 µM | > 10 µM
CCOC(=O)[C@H]1C[C@]12C(=O)Nc1cccc(Br)c12 | > 10 µM | > 10 µM
CCOC(=O)[C@H]1C[C@]12C(=O)Nc1ccc(-c3ccccc3)cc12 | 0.126 µM | > 10 µM
O=C([C@H]1C[C@]12C(=O)Nc1ccc(Br)cc12)N1CCCCC1 | 0.586 µM | > 10 µM
O=C(OCc1ccccc1)[C@H]1C[C@]12C(=O)Nc1ccc(Br)cc12 | 5.58 µM | > 10 µM
CCOC(=O)[C@H]1C[C@]12C(=O)Nc1ccc(-c3cccn3C)cc12 | 0.358 µM | 8.06 µM
CCOC(=O)[C@H]1C[C@]12C(=O)N(C)c1ccc(Br)cc12 | > 10 µM | > 10 µM
